US20160207906A1, “NOVEL 2,6-DIAMINOPYRIMIDINE DERIVATIVE” (CARNA BIOSCIENCES, INC., priority 2013, published 2016)
Entries after “also recorded” stand apart in the source; their conditions may differ.

Assays:
Dephosphorylated BTK = molecular target: T1, Dephosphorylated BTK (Homo sapiens, UniProt Q06187); assay: BTK activity inhibition test (mobility shift assay, dephosphorylated BTK); type: biochemical; conditions: 200 μM ATP in substrate mixture, 1 hour at room temperature
T1 construct: purchased Carna Biosciences, Inc
T1 sequence (Q06187 whole entry): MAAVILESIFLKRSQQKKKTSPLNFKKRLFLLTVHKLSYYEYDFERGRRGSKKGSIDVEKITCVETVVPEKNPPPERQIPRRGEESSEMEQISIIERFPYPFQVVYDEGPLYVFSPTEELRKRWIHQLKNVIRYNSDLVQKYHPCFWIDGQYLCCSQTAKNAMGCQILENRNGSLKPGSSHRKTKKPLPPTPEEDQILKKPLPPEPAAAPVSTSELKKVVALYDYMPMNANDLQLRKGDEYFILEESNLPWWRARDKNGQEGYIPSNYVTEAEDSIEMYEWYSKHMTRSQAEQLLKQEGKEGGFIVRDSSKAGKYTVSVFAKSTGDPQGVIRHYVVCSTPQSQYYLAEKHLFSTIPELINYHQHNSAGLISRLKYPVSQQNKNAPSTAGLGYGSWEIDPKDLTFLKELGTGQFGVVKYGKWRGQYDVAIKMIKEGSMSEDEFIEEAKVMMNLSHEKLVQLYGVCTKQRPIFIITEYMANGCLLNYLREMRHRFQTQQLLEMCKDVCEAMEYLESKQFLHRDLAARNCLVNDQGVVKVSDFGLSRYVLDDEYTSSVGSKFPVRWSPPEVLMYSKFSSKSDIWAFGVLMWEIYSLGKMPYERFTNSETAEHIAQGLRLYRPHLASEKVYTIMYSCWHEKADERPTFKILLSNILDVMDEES
Protocol: Dephosphorylated BTK was obtained by adding A protein phosphatase (manufactured by New England BioLabs Inc., Code No. P0753S) and MnCl2 at 10 U/μg and 2 mM, respectively to biotinylated BTK protein BTN-BTK (manufactured by Carna Biosciences, Inc.) enzyme solution, reacting the mixture at 4° C. overnight, and removing of A protein phosphatase by anti DYKDDDDK-tag antibody agarose gel chromatography, followed by buffer exchange using a 10DG Desalting Column.
The kinase activity was measured using QuickScout Screening Assist (trade mark) MSA (commercially available kit manufactured by Carna Biosciences, Inc.) by mobility shift assay (MSA) method. The substrate of the kinase reaction was an FITC-labeled SRCtide peptide included in the kit. An assay buffer [20 mM HEPES, 0.01% Triton X-100 (Trade mark), 2 mM dithiothreitol, pH7.5] was used and adjusted at 4 μM substrate, 20 mM MgCl2 and 200 μM ATP to obtain a substrate mixture solution. The enzyme solution was also prepared by diluting the dephosphorylated BTK to 0.6 nM using the assay buffer. The 10 mM solution of the test compound in DMSO was further diluted with DMSO to 10 levels of the concentration (0.00003 mM, 0.0001 mM, 0.0003 mM, 0.001 mM, 0.003 mM, 0.01 mM, 0.03 mM, 0.1 mM, 0.3 mM, 1 mM), each of which was subjected to a 25-fold dilution with the assay buffer to obtain the drug solutions (4% DMSO solutions), 5 μL of the drug solution or a control solution (4% DMSO-assay buffer), 5 μL of the substrate mixture solution, and 10 μL of the enzyme solution were mixed in the wells of a polypropylene 384-well plate and allowed to react at room temperature for 1 hour, and then quenched by adding 60 μL of the termination buffer included in the kit. Subsequently, the quantities of the substrates (S) and the phosphorylated substrate (P) in the reaction solution were measured using LabChip EZ Reader II system (manufactured by Caliper Life Sciences) according to the protocol of the assay kit.
The heights of the peaks of the isolated substrate and the phosphorylated substrate were represented as S and P, respectively, and a blank which contained the assay buffer instead of the enzyme solution was also measured.
The inhibition rate (%) of the test compound was calculated according to the following equation.
Inhibition rate (%)=(1−(C−A)/(B−A))×100
wherein, A, B and C represent P/(P+S) of the blank well, P/(P+S) of the control well and P/(P+S) of the compound-containing well, respectively.
The IC50 value was calculated via a regression analysis of the inhibition rate (%) and the test compound concentration (logarithmic value).

[1] = tested on: anti-IgM antibody BCR stimulation-induced intracellular calcium influx in Ramos cells; assay: Inhibition test on the change of Ramos intracellular calcium ion; type: cell-based; conditions: Fluo-8NW, anti-IgM antibody 2.0 μg/mL
Protocol: The intracellular BTK inhibition by the compounds of the present invention was verified by measuring the effects of the compounds of the present invention on “anti-IgM antibody BCR stimulation-induced intracellular calcium influx”.
One day before measurement, the Ramos cells were cultured as being suspended again at a cell density of 1.0×10^6 cells/mL in a fresh growth medium (growth medium as used in Test Example 2), and the cells were recovered next day by centrifugation and washed with RPMI-1640 medium supplemented with 5% penicillin-streptomycin (Nacalai Tesque, Inc.) (Medium 1). These cells were suspended again at a cell density of 2.0×10^6 cells/mL in RPMI-1640 medium supplemented with 1% Ultra Low IgG FBS (GIBCO, #16250) and 5% penicillin-streptomycin (Nacalai Tesque, Inc.) (Medium 2), and thereafter each 100 μL of the cell suspension was added to each well of a Poly Lysine-coated microplate (BD BioCoat™, #356692), centrifuged (700 rpm, 3 minutes) and then incubated for 1 hour in a 5% CO2 incubator at 37° C. […]
The Ramos intracellular calcium ion concentration was measured as a fluorescent intensity of the calcium indicator Fluo-8NW using a microplate reader (SynergyH1) (Ex/Em=490/525 nm). […]

Cn1cc(Nc2nc(N)cc(-c3cccc(-n4ccc5cc(C6(C)CC6)cc(F)c5c4=O)c3CO)n2)cn1 [Example 25, 2-(3-{6-Amino-2-[(1-methyl-1H-pyrazol-4-yl)amino]pyrimidin-4-yl}-2-(hydroxy-methyl)phenyl)-8-fluoro-6-(1-methylcyclopropyl) isoquinolin-1(2H)-one]
IC50 (Dephosphorylated BTK): 0.2 nM

Nc1cc(-c2cccc(-n3ncc4cc(C5CC5)cc(F)c4c3=O)c2CO)nc(Nc2cnn(C3CC3)c2)n1 [Example 21, 2-(3-{6-Amino-2-[(1-cyclo-propyl-1H-pyrazol-4-yl)amino]pyrimidin-4-yl}-2-(hydroxymethyl)phenyl)-6-cyclopropyl-8-fluoro-phthalazin-1(2H)-one]
IC50 (Dephosphorylated BTK): 0.4 nM

CC(=O)c1cc(Nc2nc(N)cc(-c3cccc(-n4ccc5cc(C6CC6)cc(F)c5c4=O)c3CO)n2)cn1C [Example 17, 2-(3-{2-[(5-Acetyl-1-methyl-1H-pyrrol-3-yl)amino]-6-aminopyrimidin-4-yl}-2-(hydroxymethyl)phenyl)-6-cyclopropyl-8-fluoroiso-quinolin-1(2H)-one]
IC50 (Dephosphorylated BTK): 0.8 nM

Cn1cc(Nc2nc(N)cc(-c3cccc(-n4ccc5cc(C(C)(C)C)cc(F)c5c4=O)c3CO)n2)cn1 [Example 7, 2-(3-{6-Amino-2-[(1-methyl-1H-pyrazol-4-yl)amino]pyrimidin-4-yl}-2-(hydroxymethyl)phenyl)-6-(tert-butyl)-8-fluoro-isoquinolin-1(2H)-one]
IC50 (Dephosphorylated BTK): 0.3 nM

Cn1cc(Nc2nc(N)cc(-c3ccnc(-n4ccc5cc(C6CC6)cc(F)c5c4=O)c3CO)n2)cn1 [Example 22, 2-(4-{6-Amino-2-[(1-methyl-1H-pyrazol-4-yl)amino]pyrimidin-4-yl}-3-(hydroxy-methyl)pyridin-2-yl)-6-cyclo-propyl-8-fluoroisoquinolin-1(2H)-one]
IC50 (Dephosphorylated BTK): 0.8 nM

Cn1cc(Nc2nc(N)cc(-c3cccc(-n4ncc5cc(C6CC6)cc(F)c5c4=O)c3CO)n2)cn1 [Example 20, 2-(3-{6-Amino-2-[(1-methyl-1H-pyrazol-4-yl)amino]pyrimidin-4-yl}-2-(hydroxy-methyl)phenyl)-6-cyclopropyl-8-fluorophthalazin-1(2H)-one]
IC50 (Dephosphorylated BTK): 0.6 nM

Cn1cc(Nc2nc(N)cc(-c3cccc(-n4ccc5cc(C6CC6)cc(F)c5c4=O)c3CO)n2)cc1C#N [Example 5, 4-({4-Amino-6-[3-(6-cyclo-propyl-8-fluoro-1-oxoiso-quinolin-2(1H)-yl)-2-(hydroxymethyl)phenyl]pyrimidin-2-yl}amino)-1-methyl-1H-pyrrole-2-carbonitrile]
IC50 (Dephosphorylated BTK): 1.7 nM

Cn1cc(Nc2nc(N)cc(-c3cccc(-n4ncc5cc(C6CC6)cc(F)c5c4=O)c3CO)n2)cc1C#N [Example 24, 4-({4-Amino-6-[3-(6-cyclo-propyl-8-fluoro-1-oxo-phthalazin-2(1H)-yl)-2-(hydroxymethyl)phenyl]pyrimidin-2-yl}amino)-1-methyl-1H-pyrrole-2-carbonitrile]
IC50 (Dephosphorylated BTK): 0.4 nM

Nc1cc(-c2cccc(-n3ccc4cc(C5CC5)cc(F)c4c3=O)c2CO)nc(Nc2cn[nH]c2)n1 [Example 18, 2-(3-{2-[(1H-Pyrazol-4-yl)amino]-6-aminopyrimidin-4-yl}-2-(hydroxymethyl)phenyl)-6-cyclopropyl-8-fluoroiso-quinolin-1(2H)-one]
IC50 (Dephosphorylated BTK): 0.6 nM

CN1CCN(c2ccc(Nc3nc(N)cc(-c4cccc(-n5ccc6cc(C7CC7)cc(F)c6c5=O)c4CO)n3)cc2)CC1 [Example 15, 2-[3-(6-Amino-2-{[4-(4-methylpiperazin-1-yl)phenyl]amino}pyrimidin-4-yl)-2-(hydroxymethyl)phenyl]-6-cyclopropyl-8-fluoroisoquinolin-1(2H)-one]
IC50 (Dephosphorylated BTK): 0.4 nM

Nc1cc(-c2cccc(-n3ccc4cc(C5CC5)cc(F)c4c3=O)c2CO)nc(Nc2cnn(C3CC3)c2)n1 [Example 9, 2-(3-{6-Amino-2-[(1-cyclopropyl-1H-pyrazol-4-yl)amino]pyrimidin-4-yl}-2-(hydroxymethyl)phenyl)-6-cyclopropyl-8-fluoroisoquinolin-1(2H)-one]
IC50 (Dephosphorylated BTK): 0.3 nM

Nc1cc(-c2cccc(-n3ccc4cc(C5CC5)cc(F)c4c3=O)c2CO)nc(Nc2cnn(CC3CC3)c2)n1 [Example 8, 2-[3-(6-Amino-2-{[1-(cyclopropylmethyl)-1H-pyrazol-4-yl]amino}pyrimidin-4-yl)-2-(hydroxymethyl)phenyl]-6-cyclopropyl-8-fluoroisoquinolin-1(2H)-one]
IC50 (Dephosphorylated BTK): 0.3 nM

Nc1cc(-c2cccc(-n3ccc4cc(C5CC5)cc(F)c4c3=O)c2CO)nc(Nc2ccc(N3CCOCC3)cc2)n1 [Example 1, 2-(3-{6-Amino-2-[(4-morpholinophenyl)amino]pyrimidin-4-yl}-2-(hydroxymethyl)phenyl)-6-cyclopropyl-8-fluoroisoquinolin-1 (2H)-one]
IC50 (Dephosphorylated BTK): 2.1 nM
inhibition of anti-IgM antibody BCR stimulation-induced intracellular calcium ion variation (FIG. 1) [1]: in a concentration-dependent manner from a low concentration; also recorded: inhibit the flux of calcium into the cells

Cn1cc(Nc2nc(N)cc(-c3cccc(-n4ccc5cc(C6CC6)cc(F)c5c4=O)c3CO)n2)cn1 [Example 2, 2-(3-{6-Amino-2-[ (1-methyl-1H-pyrazol-4-yl)amino]pyrimidin-4-yl}-2-(hydroxymethyl)phenyl)-6-cyclopropyl-8-fluoroisoquinolin-1 (2H)-one]
IC50 (Dephosphorylated BTK): 6.4 nM
inhibition of anti-IgM antibody BCR stimulation-induced intracellular calcium ion variation (FIG. 1) [1]: in a concentration-dependent manner from a low concentration; also recorded: inhibit the flux of calcium into the cells

N#Cc1cc(Nc2nc(N)cc(-c3cccc(-n4ccc5cc(C6CC6)cc(F)c5c4=O)c3CO)n2)cn1C1CC1 [Example 10, 4-({4-Amino-6-[3-(6-cyclo-propyl-8-fluoro-1-oxoiso-quinolin-2(1H)-yl)-2-(hydroxymethyl)phenyl]pyrimidin-2-yl}amino)-1-cyclopropyl-1H-pyrrole-2-carbonitrile]
IC50 (Dephosphorylated BTK): 2.1 nM
